The text below walks through data of patent publication US20050042281A1, “Compositions for delivering therapeutic agents across the oral mucosa” (priority 2003, published 2005).

Data set [1] can be described thus: Membrane assay (parallel artificial membrane, effective permeability). Particulars: for Papp: PAMPA.
Procedure: (§1) This assay uses a lipid-coated membrane to predict lipid mucosal membrane penetration.
(§2) The membrane apparatus consists of a dodecane membrane sandwiched between a donor and acceptor cell.
(§3) Membrane assays were performed using oxycodone HCl solutions at a pH of 6.5, 9.5, and 10.0. The pH of the solutions was adjusted using a freshly prepared 0.01 M sodium bicarbonate—sodium carbonate buffer. Permeation was measured by determining the concentrations of oxycodone in the acceptor cell and is expressed as Pe (effective permeability in centimeters per second).
Data set [2] in a line: Extent of un-ionized form at a given pH, worked out from pKa. It counts as physicochemical. An excerpt:
Conversion of the ionized form to the un-ionized form for basic agents is related to pH by the formula: pH=pKa +Log10 (Un-ionized concentration/Ionized concentration). When the pH is the same as the pKa, equimolar concentrations of the unionized form and ionized form exist. […] Similarly, when the pH is two units higher than the pKa, the ratio of un-ionized form to the ionized form is 100:1. As noted above, the un-ionized form is lipophilic and, therefore, more capable of passing through the mucous membranes than the ionized form, which is lipophobic in nature. Accordingly, increasing the pH of the saliva favors conversion of the ionized form into the un-ionized form for basic agents, and the final pH may be determined by making use of the above formula for any basic agent.

Data set [3] can be described thus: in vitro. Particulars: PAMPA.
Procedure: as §1, §2, §3
The conditions of data set [4]: pH at which net charge is zero; cited from earlier work.

The term Papp denotes the rate of passage across a membrane or cell layer, normalised by area and donor concentration.

Bounds are passed on as bounds.

As for `Cc1nccn1CC1CCc2c(c3ccccc3n2C)C1=O` (stereo not shown) [Ondansetron], the “increase of effective permeability” value in data set [1] (pH 8.5 relative to pH 5.4) is above 1000%; in data set [1] (pH 8.5 relative to pH 7.4), “more than 200%”.

On to `COc1ccc2c3c1O[C@H]1C(=O)CC[C@@]4(O)[C@@H](C2)N(C)CC[C@]314` [Oxycodone, oxycodone], for which the un-ionized came to 99% in data set [2] (at pH 9.9) and 100% in data set [2] (at pH 10.9). For the same compound, the Papp stood at 227 ×10⁻⁶ cm/s in data set [1] (pH 6.5), 490 ×10⁻⁶ cm/s in data set [1] (pH 9.5) and 554 ×10⁻⁶ cm/s in data set [1] (pH 10).

Take `CNS(=O)(=O)Cc1ccc2[nH]cc(CCN(C)C)c2c1` [Sumatriptan, sumatriptan]: the un-ionized is on record as 99% in data set [2] (at pH 10.5) and 100% in data set [2] (at pH 11.5). Moreover, the Papp came to 599 ×10⁻⁶ cm/s in data set [3] (pH 9), 945 ×10⁻⁶ cm/s in data set [3] (pH 9.5) and 1560 ×10⁻⁶ cm/s in data set [3] (pH 10).

On to `CN1CCC23c4c5ccc(O)c4OC2C(O)C=CC3C1C5` (stereo not shown) [morphine], for which, in data set [4], the isoelectric point is 9.1.
